Where two headings read alike, the source gives them in different places.
Experiments:
[1] = tested on: Staphylococcus aureus (SA, MRSA); experiment: Single-point BisEDT-antibiotic combination FICI; type: cell-based
Enterococcus faecalis = experiment: Single-point BisEDT-antibiotic combination FICI; type: cell-based; settings: E Fc 3121
[2] = tested on: Streptococcus pneumoniae (SP, PRSP); experiment: Single-point BisEDT-antibiotic combination FICI; settings: PRSP 5348
[3] = tested on: Gram-negative pathogenic bacteria; experiment: Checkerboard broth microdilution MIC and FICI; type: cell-based; settings: for MIC (μg/mL) Alone / MIC: compound alone; for FICI, Fractional Inhibitory Concentration Index: in combination with Cefotaxime; for MIC: Klebsiella pneumoniae
Protocol: (§1) The effects of combinations of microparticulate Bis-EDT and four Bis-EDT analogs prepared as described above, and other agents against representative strains of several Gram-negative pathogenic bacteria were tested. A modification of a common laboratory method was used to determine synergism (FICI≦0.5), enhancement (0.5<FICI≦1.0), antagonism (FICI>4.0) and indifference (1.0<FICI≦4.0) used fractional inhibitory concentrations (FICs) and FIC indices (FICI) (Eliopoulos G and R Moellering. 1991. Antimicrobial combinations. In Antibiotics in Laboratory Medicine, Third Edition, edited by V Lorian. Williams and Wilkins, Baltimore, Md., pp. 432-492; Odds, 2003 J. Antimicrob. Chemother. 52(1):1). The checkerboard technique was used to determine FIC indices and was employed in this study.
(§2) Stock solutions of all test articles were prepared at 40× the final target concentration in the appropriate solvent. […] The final drug concentrations in the FIC assay plates were set to bracket the MIC value of each agent for each test organism, unless the strain was totally resistant to the test agent. […] The test organisms were originally received from clinical sources, or from the American Type Culture Collection. Upon receipt, the isolates were streaked onto Tryptic Soy Agar II (TSA). Colonies were harvested from these plates and a cell suspension was prepared in an appropriate broth growth medium containing cryoprotectant. Aliquots were then frozen at −80° C. The frozen seeds of the organisms to be tested in a given assay were thawed, streaked for isolation onto TSA plates, and incubated at 35° C. All organisms were tested in Mueller Hinton II Broth (Becton Dickinson, Lot No. 9044411). The broth was prepared at 1.05× normal weight/volume to offset the 5% volume of the drugs in the final test plates.
(§3) Minimal Inhibitory Concentration (MIC) values were previously determined using the broth microdilution method for aerobic bacteria (Clinical and Laboratory Standards Institute (CLSI). Methods for Dilution Antimicrobial Susceptibility Tests for Bacteria That Grow Aerobically; Approved Standard—Eighth Edition. CLSI document M07-A8 [ISBN 1-56238-689-1]. Clinical and Laboratory Standards Institute, 940 West Valley Road, Suite 1400, Wayne, Pa. 19087-1898 USA, 2009.).
(§4) FIC values were determined using a broth microdilution method previously described (Sweeney et al., 2003 Antimicrob. Agents Chemother. 47(6):1902-1906). To prepare the test plates, automated liquid handlers (Multidrop 384, Labsystems, Helsinki, Finland; Biomek 2000 and Multimek 96, Beckman Coulter, Fullerton Calif.) were used to conduct serial dilutions and liquid transfers.
(§5) The appropriate wells of standard 96-well microdilution plates (Falcon 3918) were filled with 150 μL of the appropriate solvent in columns 2-12 using the Multidrop 384. Three hundred microliters of each secondary test drug was added to each well in Column 1 of the plates. These plates were used to prepare the drug “mother plates” which provided the serial drug dilutions for the drug combination plates. The Biomek 2000 was used to transfer 150 μL of each secondary drug solution (40×) from the wells in Column 1 of the mother plate and to make eleven 2-fold serial dilutions. Mother plates of Bis-EDT (and analogs) were serial diluted top to bottom by hand, using a multichannel pipette. Two mother plates, one for each secondary drug and one for Bis-EDT (or analogs), were combined to form a “checkerboard” pattern by transfer of equal volumes (using a multi-channel pipette) to the drug combination plate. Row H and Column 12 each contained serial dilutions of one of the agents alone for determination of the MIC.
(§6) The “daughter plates” were loaded with 180 μL of test medium using the Multidrop 384. Then, the Multimek 96 was used to transfer 10 μL of drug solution from each well of the drug combination mother plate to each corresponding well of the daughter plate in a single step.

P. aeruginosa = experiment: Checkerboard broth microdilution MIC and FICI; type: cell-based, Pseudomonas aeruginosa; settings: for MIC (μg/mL) Alone / MIC: compound alone; for MIC: Pseudomonas aeruginosa
Protocol: as §1, §2, §3, §4, §5, §6

S. aureus = experiment: Broth dilution MIC/MBC, BT-antibiotic combinations; type: cell-based, Staphylococcus aureus
Protocol: Materials & Methods. Susceptibility studies were performed by broth dilution in 96-well tissue culture plates (Nalge Nunc International, Denmark) in accordance with NCCLS protocols (National Committee for Clinical Laboratory Standards. (1997). Methods for Dilution Antimicrobial Susceptibility Tests for Bacteria that Grow Aerobically: Approved Standard M7-A2 and Informational Supplement M100-S10. NCCLS, Wayne, Pa., USA).
Briefly, overnight bacterial cultures were used to prepare 0.5 McFarland standard suspensions, which were further diluted 1:50 (˜2×10^6 cfu/mL) in cation-adjusted Mueller-Hinton broth medium (BBL, Cockeysville, Md., USA). BTs (prepared as described above) and antibiotics were added at incremental concentrations, keeping the final volume constant at 0.2 mL. Cultures were incubated for 24 h at 37° C. and turbidity was assessed by absorption at 630 nm using an ELISA plate reader (Biotek Instruments, Winooski, Vt., USA) according to the manufacturer's recommendations. […] Viable bacterial counts (cfu/mL) were determined by standard plating on nutrient agar.
The checkerboard method was used to assess the activity of antimicrobial combinations. The fractional inhibitory concentration index (FICI) and the fractional bactericidal concentration index (FBCI) were calculated, according to Eliopoulos et al. (Eliopoulos and Moellering, (1996) Antimicrobial combinations. In Antibiotics in Laboratory Medicine (Lorian, V., Ed.), pp. 330-96, Williams and Wilkins, Baltimore, Md., USA). Synergy was defined as an FICI or FBCI index of […], no interaction at >0.5-4 and antagonism at >4 (Odds, F C (2003) Synergy, antagonism, and what the chequerboard puts between them. Journal of Antimicrobial Chemotherapy 52:1). Synergy was also defined conventionally as ≧4-fold decrease in antibiotic concentration.

[4] = P. aeruginosa 103, in combination with Cefepime
[5] = P. aeruginosa 103, in combination with Cefotaxime
[6] = P. aeruginosa 1381, in combination with Cefepime
[7] = P. aeruginosa 1384, in combination with Cefepime
[8] = P. aeruginosa 1474, in combination with Cefepime
[9] = P. aeruginosa 1479, in combination with Cefepime
[10] = P. aeruginosa 2566, in combination with Cefepime
[11] = P. aeruginosa 2568, in combination with Cefepime
[12] = MRSA S2446-3, BE = 0.2 μg/ml BisEDT
[13] = S. aureus ATCC 25923, BE = 0.2 μg/ml BisEDT

SMILES: CO/N=C(\C(=O)N[C@@H]1C(=O)N2C(C(=O)O)=C(COC(N)=O)CS[C@H]12)c1ccco1 [Cefuroxime]
- FICI, single-point BisEDT-antibiotic combination ([1]; MRSA 773): 4.23
- FICI, single-point BisEDT-antibiotic combination ([1]; SA 100): 1.11
- FICI, single-point BisEDT-antibiotic combination (Enterococcus faecalis): 1.11
- FICI, single-point BisEDT-antibiotic combination [2]: 1.03

SMILES: C1C[S][Bi]([S]CC[S][Bi]2[S]CC[S]2)[S]1 [MB-1B-3, bismuth-1,2-ethane dithiol]
- MIC (μg/mL) Alone ([3]; K. pneumoniae 1346): 2 µg/mL
- FICI, Fractional Inhibitory Concentration Index ([3]; K. pneumoniae 1346): 1.23
- MIC (μg/mL) Alone ([3]; K. pneumoniae 1355): 1 µg/mL
- FICI, Fractional Inhibitory Concentration Index ([3]; K. pneumoniae 1355): 2.29
- MIC (μg/mL) Alone ([3]; K. pneumoniae 2238): 1 µg/mL
- FICI, Fractional Inhibitory Concentration Index ([3]; K. pneumoniae 2238): 1.29
- MIC (μg/mL) Alone ([3]; K. pneumoniae 2541): 2 µg/mL
- FICI, Fractional Inhibitory Concentration Index ([3]; K. pneumoniae 2541): 1.23
- MIC (μg/mL) Alone ([3]; K. pneumoniae 2546): 1 µg/mL
- FICI, Fractional Inhibitory Concentration Index ([3]; K. pneumoniae 2546): 1.12
- MIC (μg/mL) Alone ([3]; K. pneumoniae 2549): 1 µg/mL
- FICI, Fractional Inhibitory Concentration Index ([3]; K. pneumoniae 2549): 0.79
- MIC (μg/mL) Alone (P. aeruginosa; P. aeruginosa 103): 1 µg/mL
- FICI, Fractional Inhibitory Concentration Index (P. aeruginosa; [4]): 0.71
- FICI, Fractional Inhibitory Concentration Index (P. aeruginosa; [5]): 0.96
- MIC (μg/mL) Alone (P. aeruginosa; P. aeruginosa 1381): 1 µg/mL
- FICI, Fractional Inhibitory Concentration Index (P. aeruginosa; [6]): 1.29
- MIC (μg/mL) Alone (P. aeruginosa; P. aeruginosa 1384): 1 µg/mL
- FICI, Fractional Inhibitory Concentration Index (P. aeruginosa; [7]): 0.79
- MIC (μg/mL) Alone (P. aeruginosa; P. aeruginosa 1474): 1 µg/mL
- FICI, Fractional Inhibitory Concentration Index (P. aeruginosa; [8]): 0.79
- MIC (μg/mL) Alone (P. aeruginosa; P. aeruginosa 1479): 1 µg/mL
- FICI, Fractional Inhibitory Concentration Index (P. aeruginosa; [9]): 1.12
- MIC (μg/mL) Alone (P. aeruginosa; P. aeruginosa 2566): 0.5 µg/mL
- FICI, Fractional Inhibitory Concentration Index (P. aeruginosa; [10]): 1.37
- MIC (μg/mL) Alone (P. aeruginosa; P. aeruginosa 2568): 1 µg/mL
- FICI, Fractional Inhibitory Concentration Index (P. aeruginosa; [11]): 0.79

SMILES: OCC(S)CS.[Bi] (stereo not drawn) [MB-2B, bismuth-2,3-dimercaptopropanol]
- FICI, Fractional Inhibitory Concentration Index ([3]; K. pneumoniae 1346): 1.19
- FICI, Fractional Inhibitory Concentration Index ([3]; K. pneumoniae 1355): 1.19
- FICI, Fractional Inhibitory Concentration Index ([3]; K. pneumoniae 2238): 1.64
- FICI, Fractional Inhibitory Concentration Index ([3]; K. pneumoniae 2541): 0.64
- FICI, Fractional Inhibitory Concentration Index ([3]; K. pneumoniae 2546): 1.16
- FICI, Fractional Inhibitory Concentration Index ([3]; K. pneumoniae 2549): 0.83
- MIC ([3]; read-out: MIC (μg/mL) Alone, K. pneumoniae 1346): 4 µg/mL
- MIC ([3]; read-out: MIC (μg/mL) Alone, K. pneumoniae 1355): 4 µg/mL
- MIC ([3]; read-out: MIC (μg/mL) Alone, K. pneumoniae 2238): 4 µg/mL
- MIC ([3]; read-out: MIC (μg/mL) Alone, K. pneumoniae 2541): 8 µg/mL
- MIC ([3]; read-out: MIC (μg/mL) Alone, K. pneumoniae 2546): 8 µg/mL
- MIC ([3]; read-out: MIC (μg/mL) Alone, K. pneumoniae 2549): 8 µg/mL
- FICI, Fractional Inhibitory Concentration Index (P. aeruginosa; P. aeruginosa 103, in combination with Aztreonam): 1.08
- FICI, Fractional Inhibitory Concentration Index (P. aeruginosa; [4]): 0.61
- FICI, Fractional Inhibitory Concentration Index (P. aeruginosa; [5]): 1.11
- MIC (μg/mL) Alone (P. aeruginosa; P. aeruginosa 1381): 4 µg/mL
- FICI, Fractional Inhibitory Concentration Index (P. aeruginosa; P. aeruginosa 1381, in combination with Aztreonam): 0.89
- FICI, Fractional Inhibitory Concentration Index (P. aeruginosa; [6]): 1.09
- MIC (μg/mL) Alone (P. aeruginosa; P. aeruginosa 1384): 4 µg/mL
- FICI, Fractional Inhibitory Concentration Index (P. aeruginosa; P. aeruginosa 1384, in combination with Aztreonam): 0.91
- FICI, Fractional Inhibitory Concentration Index (P. aeruginosa; [7]): 0.94
- FICI, Fractional Inhibitory Concentration Index (P. aeruginosa; P. aeruginosa 1474, in combination with Aztreonam): 0.54
- FICI, Fractional Inhibitory Concentration Index (P. aeruginosa; [8]): 0.98
- FICI, Fractional Inhibitory Concentration Index (P. aeruginosa; P. aeruginosa 1479, in combination with Aztreonam): 0.87
- FICI, Fractional Inhibitory Concentration Index (P. aeruginosa; [9]): 1.11
- FICI, Fractional Inhibitory Concentration Index (P. aeruginosa; P. aeruginosa 2566, in combination with Aztreonam): 0.91
- FICI, Fractional Inhibitory Concentration Index (P. aeruginosa; [10]): 1.23
- FICI, Fractional Inhibitory Concentration Index (P. aeruginosa; P. aeruginosa 2568, in combination with Aztreonam): 0.87
- FICI, Fractional Inhibitory Concentration Index (P. aeruginosa; [11]): 1.11
- MIC (P. aeruginosa; read-out: MIC (μg/mL) Alone, P. aeruginosa 1381): 8 µg/mL
- MIC (P. aeruginosa; read-out: MIC (μg/mL) Alone, P. aeruginosa 1384): 8 µg/mL

SMILES: NC[C@@H]1O[C@H](O[C@H]2[C@@H](O)[C@H](O[C@@H]3[C@@H](O)[C@H](N)C[C@H](N)[C@H]3O[C@H]3O[C@H](CN)[C@@H](O)[C@H](O)[C@H]3N)O[C@@H]2CO)[C@H](N)[C@@H](O)[C@@H]1O [NEO, Neomycin]
- Δ (S. aureus; [12]): 1.6
- MIC (S. aureus; MRSA S2446-3, antibiotic alone): 13.400 µg/mL
- MIC + BE (S. aureus; MRSA S2446-3, with 0.2 μg/ml BisEDT): 8.500 µg/mL
- Δ (S. aureus; [13]): 2.5
- MIC (S. aureus; S. aureus ATCC 25923, antibiotic alone): 0.500 µg/mL
- MIC + BE (S. aureus; S. aureus ATCC 25923, with 0.2 μg/ml BisEDT): 0.200 µg/mL

SMILES: NC[C@@H]1O[C@H](O[C@H]2[C@@H](O)[C@H](O[C@@H]3[C@@H](O)[C@H](N)C[C@H](N)[C@H]3O[C@H]3O[C@H](CO)[C@@H](O)[C@H](O)[C@H]3N)O[C@@H]2CO)[C@H](N)[C@@H](O)[C@@H]1O [PARO, Paromomycin]
- Δ (S. aureus; [12]): 1.8
- Synergy (S. aureus; [13]): + (Synergy was also defined conventionally as ≧4-fold decrease in antibiotic concentration)
- Δ (S. aureus; [13]): 5.7
- MIC (S. aureus; Staphylococcus aureus, ATCC25923, S. aureus ATCC 25923, antibiotic alone, read-out: MIC): 1.08 µg/mL
- MIC (S. aureus; Staphylococcus aureus, ATCC25923, S. aureus ATCC 25923, with 0.2 μg/ml BisEDT, read-out: MIC + BE): 0.188 µg/mL
- MIC (S. aureus; Staphylococcus aureus, MRSA, MRSA S2446-3, antibiotic alone, read-out: MIC): 335 µg/mL
- MIC (S. aureus; Staphylococcus aureus, MRSA, MRSA S2446-3, with 0.2 μg/ml BisEDT, read-out: MIC + BE): 183 µg/mL

From patent publication US9408393B2, “Bismuth-thiols as antiseptics for agricultural, industrial and other uses” (Microbion Corporation, priority 2010, dated 2016)
